We go through two compounds from patent publication US20230355674A1, “DONOR T-CELLS WITH KILL SWITCH” (CSL Behring LLC, priority 2020, published 2023).

“Also recorded” adds a separate entry of the source.

Data set [1] in a line: MTX dose response in 6-TG selected CEM cells. The format is cell-based. To be noted: human, wild type CEM T cell leukemia cells, 0.5 μM MTX, thymidine 16 μM, read-out: viable wild type (WT) cells. As to the method:
CEM T cell leukemia cells modified by 8 guide RNAs targeting the HPRT1 gene were cultured for 1 week in the presence of 10 μM 6-TG, replenished with fresh 6-TG every 48-72 hours. Following the selection period and confirmation of HPRT protein reduction, the CEM cells were tested for their sensitivity to a dose range of […], methotrexate (MTX) for 3 days in the presence of thymidine 16 μM (T1895 Sigma).

The test system of data set [2] is K562 cells. The experiment in a line: Negative selection with MTX, transduced or transfected K562 cells. The format is cell-based, human. Conditions: 0.3 μM of MTX. How it is done:
Transduced or transfected K562 cells (such as those from Example 1) were cultured with or without MTX from day 0 to day 14. The medium was refreshed every 3 to 4 days. GFP was analyzed on a flow machine and the InDel % was analyzed by T7E1 assay. […] On the other hand, the population of cells was steady without MTX. FIG. 14B illustrates that the transfected K562 cells were eliminated under treatment with 0.3 μM of MTX at a faster pace as compared with the HPRT-knockdown population.

Data set [3] deals with CEM cells. The data set can be described thus: Negative selection with MTX or MPA, transduced or transfected CEM cells. To be noted: 0.3 μM of MTX, day 0 to day 14. The format is cell-based. How it is done:
Transduced or transfected CEM cells (such as those from Example 1) were cultured with or without MTX from day 0 to day 14. The medium was refreshed every 3 to 4 days. GFP was analyzed on flow machine and InDel % was analyzed by T7E1 assay.

Data set [4] relates to primary human T cells. The experiment in a line: 6-TG resistance of gRNA modified primary human T cells (viability). The format is cell-based. Conditions: donors #9 and #10, 1 uM 6-TG, day 8 and day 13, vs unmodified. The source says:
FIG. 44 illustrates a method of modifying primary T-cells in accordance with one embodiment of the present disclosure. FIGS. 45A-45C illustrate 6-TG dose responses seven days following the modification of the primary T-cells in accordance with the modification methods described herein. In particular, FIGS. 45A and 45B illustrate the targeting of Exon 3 (guide RNA 13) and Exon 8 (guide RNA 21). The references “#9” and “#10” denote T-cell number and UT control (electroporated without RNP). FIG. 45C illustrates unmodified cells from donor #9 and donor #10 tested with increasing concentrations of 6-TG (day 4). It was observed that the […] primary T-cells were very sensitive to low doses of 6-TG. ICE Scores are shown below.
(§1) Peripheral blood mononuclear cells (PBMC) were isolated from Australian Red Cross Blood donor samples (n=2) via density centrifugation. […] By day 7, the original mixed PBMC population was determined to be primarily CD3+ T cells (flow cytometry; data not shown).
The cells were then cultured for about 7 and about 12 days in the presence of 1 uM 6-TG, with 6-TG replenished every about 2 to about 3 days. At each of these time points, the cells were assessed for the proportion of viable cells compared to untreated (UT) controls.

In data set [5] the test system is CEM T cell leukemia cells. The data set can be described thus: 6-TG dose response of gRNA modified CEM cells 72 hours after electroporation. To be noted: 72 hours culture, 6-TG tested up to 40 μM, vs unmodified. The format is cell-based. As to the method: (§2) CEM T cell leukemia cells were electroporated (1600V, 10 ms pulse width, 3 pulses by using the Neon Transfection system) with ribonucleoprotein (RNP) complexes containing guide RNA (see Example 21) designed in-house and obtained from Integrated DNA Technologies (IDT), together with Cas9 and tracrRNA. Cells confirmed to be transfected with the gRNA via the use of the tracr RNA (24 hours post electroporation) were purified using fluorescence activated cells sorting (FACS) prior to culture for a further 72 hours, followed by assessment of cell survival when challenged with increasing concentrations of 6-thioguanine (6-TG) compared to wild type (unmodified) CEM cells.

For data set [6], the system named is CEM T cell leukemia cells. The experiment in a line: 6-TG selection and 6-TG challenge of gRNA modified CEM cells (cell viability). To be noted: CEM, 10 μM 6-TG for 1 week, vs wild-type. The format is cell-based. How it is done: Cells confirmed to be transfected with the gRNA via the use of the tracr RNA (24 hours post electroporation) were purified using fluorescence activated cells sorting (FACS) prior to culture in 10 μM 6-TG for 1 week replenished with fresh 6-TG every 48-72 hours.
After 10 days in the presence of 10 uM 6-TG, replenished with fresh 6-TG every 48-72 hours, each cell line was challenged with increasing concentrations of 6-thioguanine (6-TG) and cell viability was compared to wild type (unmodified) CEM cells (see FIG. 40B).

The subject of data set [7] is HPRT1 gene. The data set can be described thus: ICE scoring (indel, knockout score) of gRNA editing in primary T cells. The format is cell-based. Conditions: primary human T cells.
Source text: (§3) Indel Percentage—The editing efficiency (percentage of the pool with non-wild type sequence) as determined by comparing the edited trace to the control trace. In the ICE algorithm, potential editing outcomes are proposed and fitted to the observed data using linear regression.
(§4) Knockout Score—Represents the proportion of cells that have either a frameshift or 21+bp indel. This score is a useful measure for those who are interested in understanding how many of the contributing indels are likely to result in a functional Knockout (KO) of the targeted gene.
FIG. 44 illustrates a method of modifying primary T-cells in accordance with one embodiment of the present disclosure. FIGS. 45A-45C illustrate 6-TG dose responses seven days following the modification of the primary T-cells in accordance with the modification methods described herein. In particular, FIGS. 45A and 45B illustrate the targeting of Exon 3 (guide RNA 13) and Exon 8 (guide RNA 21). The references “#9” and “#10” denote T-cell number and UT control (electroporated without RNP). […]
as §1

In data set [8] the test system is primary human T cells. The experiment in a line: MTX dose response in 6-TG selected primary human T cells. The format is cell-based. To be noted: primary human T cells after 12 days 1 μM 6-TG, MTX dose range 2 days, thymidine 16 μM. How it is done:
Primary human T cells modified using guide RNAs targeting the HPRT1 gene and subsequently placed under selection pressure for 12 days with 1 μM 6-TG, with 6-TG replenished every 2 to 3 days, were subjected to a dose range of MTX in the presence of thymidine 16 μM for 2 days and assessed for cell viability.

The subject of data set [9] is HPRT protein. The experiment in a line: Western blot of HPRT protein in gRNA modified CEM cells. The format is cell-based, human. As to the method:
as §2
Unmodified and modified CEM cells were also used for isolation of protein and detection of the HPRT protein using Western blot (FIG. 39, top panel). […] Actin protein detection (FIG. 39, bottom panel) was used as a protein loading control.
CEM T cell leukemia cells were electroporated (1600V, 10 ms pulse width, 3 pulses by using the Neon Transfection system) with ribonucleoprotein (RNP) complexes containing guide RNA (gRNA; legend) designed in-house and obtained from Integrated DNA Technologies (IDT), together with Cas9 and tracrRNA. Cells confirmed to be transfected with the gRNA via the use of the tracr RNA (24 hours post electroporation) were purified using fluorescence activated cells sorting (FACS) prior to culture for 10 days in the presence of 10 uM 6-TG, replenished with fresh 6-TG every 48-72 hours.
Following the selection period, protein was extracted from each cell and used for western blot-based detection of the HPRT protein. Detection of beta-actin was used as a protein loading control (Actin Antibody (ACTBD11B7): sc-81178. Santa Cruz).

Data set [10] concerns HPRT1 gene. The experiment in a line: ICE scoring (indel, knockout score) of gRNA editing in CEM cells. The format is cell-based, human.
Source text: The top candidate guide RNAs from Example 21 were screen in Jurkat cell lines (n=1) and validated in CEM cell lines (n=2). For instance, Jurkat cells were electroporated with a ribonucleoprotein (RNP) complex containing guide RNA (e.g. an RNP including a guide RNA having any one of SEQ ID NOS: 40-49) together with the Cas9 and tracrRNA. The methodology and analysis was the same for both Jurkat cell lines and CEM cell lines (see also, FIG. 37). Following electroporation, cell viability was measured at different concentrations of 6-TG (see FIG. 36).
as §3, §4, §2

The test system of data set [11] is HPRT protein. The experiment in a line: Western blot of HPRT protein in gRNA modified primary T cells. The format is cell-based, human. Conditions: 72 hours after electroporation.

Regarding `CN(Cc1cnc2nc(N)nc(N)c2n1)c1ccc(C(=O)N[C@@H](CCC(=O)O)C(=O)O)cc1` [MTX, methotrexate], the viability at 3 days, 0.5 µM in data set [1] was 60%. Further, in data set [2] (day 0 to day 14), the “GFP population of transduced (HPRT knockdown) K562 cells” value is listed as “decreased”. Besides, the “transfected (HPRT knockout) K562 cells” value in data set [2] (day 0 to day 14, compared with HPRT-knockdown population) is recorded as “eliminated”. In addition, the “HPRT knockout population of CEM cells” value in data set [3] is given as “eliminated at a faster pace”. Further, the “GFP population of transduced (HPRT knockdown) cells” value in data set [3] (CEM cells) is “decreased”.
Consider “gRNA 21: sgRNA guide and PAM TATCCTACAACAAACTTGTCTGG, HPRT 1 target Exon 8 (listed as DNA, chemistry not given here)”, for which the “proportion of viable cells under 6-TG” value in data set [4] was “increased viability”. The “resistance to 6-TG challenge (cell survival)” value in data set [5] is given as “intermediate resistance”. The “cell viability under 6-TG selection” value in [6] is reported as “more variable viability”. Moreover, the “knockout efficiency (ICE scoring)” value in data set [7] is reported as “about 1%”. Moreover, in data set [8], the “sensitivity to MTX compared to wild-type non-modified cells (UT)” value is reported as “increased sensitivity to MTX”. Further, the “HPRT protein (Western blot)” value in data set [9] (72 hours post-electroporation, no 6-TG selection, listed as guide 21) is “reduced compared to wildtype; also recorded: detectable levels of HPRT protein”; in data set [9] (after 10 days of 6-TG selection (10 uM)), “limited to no detectable levels of HPRT”; in data set [11], “residual HPRT protein was observed”. Moreover, the “editing (ICE scoring), in words” value in data set [10] is “efficient editing”.
